The source of these data is patent publication US5138067A, “Lipid derivatives” (Shionogi & Co. Ltd., priority 1991, dated 1992).

One test deals with platelet aggregation induced by PAF. Nature of the test: PAF-induced platelet aggregation inhibition (method of Born, aggregometer, platelet rich plasma). The format is cell-based. The following applies: Oryctolagus cuniculus, Platelet, 2 min, in vitro, rabbit PRP 50-55×10^4 /μl, 37° C., PAF C16 final 20 nM added 2 minutes after compound; read-out: IC50 (concentration of the test compounds which inhibit 50% platelet aggregation). The protocol: Mature male rabbits (NIBS-JW, RABITON Institute Inc., weighing 2.2-2.5 kg) were used. […] (The total volume of blood sample in each tube was adjusted to 8 ml.)
The blood sample in each tube was gently shaken and then centrifuged for 10 minutes at 200 g at 22° C. to give platelet rich plasma (PRP). The remaining blood was further centrifuged at 3,000 rpm (about 1,900 g) for 10 minutes at 22° C. to give platelet-poor plasma (PPP).
PRP was diluted with PPP to prepare a blood sample whose platelet number was 50-55×10^4 /μl. The sample was then subjected to a platelet aggregation test.
A volume of 230 μl of PRP, whose platelet number was adjusted to 50-55×10^4 /μl, was placed in a measuring cuvette and set in the aggregometer. PRP was warmed at 37° C. for 1 minute with stirring at 1,200 rpm, and then a solution of the test compound [dimethylsulfoxide solution (1μl) of the compound+saline (9μl)] was added thereto. Exactly 2 minutes later, 10 μl of platelet activating factor (PAF, C16) (final concentration: 20 nM) was added as a platelet aggregating agent, and the change in light transmission caused by platelet aggregation was recorded.
The light transmissions of PRP and PPP were taken as 0% and 100% aggregation, respectively, and the maximum light transmission after addition of an aggregating agent was made the maximum aggregation. The inhibition rate of the platelet aggregation was expressed as the percentage of the maximum aggregation by a test compound to that by a control (Vehicle added group).
Turning to `CCCCCCCCCCCCCCCCCCNC(=O)OCC(CNS(=O)(=O)CCC[n+]1ccccc1)OC` (stereo not shown) [I a3], the IC50 was 5200 nM.

Turning to `CCCCCCCCCCCCCCCCOCC(CNS(=O)(=O)CCC[n+]1ccsc1)OC` (stereo not shown) [I a11, 1-hexadecyloxy-2-methoxy-3-(3-thiazoliopropylsulfonylamino)propane iodide], the IC50 came out at 2970 nM.

On to `CCCCCCCCCCCCCCCCCCNC(=O)OCC(CNS(=O)(=O)CCC[n+]1cccc2ccccc21)NC(=O)OC(C)(C)C` (stereo not shown) [I e6, 2-tert-butoxycarbonylamino-1-octadecylcarbamoyloxy-3-(3-quinoliniopropylsulfonylamino)propane iodide], for which the IC50 was determined as 3090 nM.

Regarding `CCCCCCCCCCCCCCCCCCNC(=O)OCC(CNS(=O)(=O)CCC[n+]1cccc2ccccc21)Oc1ccon1` (stereo not shown) [I j3, 2-(3-isoxazolyloxy)-1-octadecylcarbamoyloxy-3-(3-quinoliniopropylsulfonylamino)propane iodide], the IC50 was determined as 250 nM.

As to `CCCCCCCCCCCCCCCCCCNC(=O)OCC1(CNS(=O)(=O)CCC[n+]2cccc3ccccc32)CCCO1` (stereo not shown) [I b2, 2-octadecylcarbamoyloxymethyl-2-(3-qunoliniopropylsulfonylaminomethyl)tetrahydrofuran iodido], the IC50 was 385 nM.

As for `CCCCCCCCCCCCCCCCSCC(CNS(=O)(=O)CCC[N+](C)(C)C)n1nnc(C)n1` (stereo not shown) [I h1, 1-hexadecylthio-2-(5-methyl-2H-tetrazol-2-yl)-3-(3-trimethylammoniopropylsulfonylamino)propane iodide], the IC50 was found to be 23200 nM.

Take `CCCCCCCCCCCCCCCCCCNC(=O)OCC(CNS(=O)(=O)CCCC[n+]1ccsc1)OC` (stereo not shown) [I a13, 2-methoxy-1-octadecylcarbamoyloxy-3-(4-thiazoliobutylsulfonylamino)propaneiodide]: the IC50 turned out to be 1770 nM.

In the case of `CCCCCCCCCCCCCCCCCCNC(=O)OCC(CNS(=O)(=O)CCC[N+]1(C)CCOCC1)OC` (stereo not shown) [I a4], the IC50 came to 64200 nM.

On to `CCCCCCCCCCCCCCCCCCNC(=O)SCC(CNS(=O)(=O)CCC[n+]1cccc2ccccc21)OC` (stereo not shown) [I a25, 2-methoxy-1-octadecylcarbamoylthio-3-(3-quinoliniopropylsulfonylamino)propane iodide], for which the IC50 amounted to 360 nM.

For `CCCCCCCCCCCCCCCCSCC(CNS(=O)(=O)CCC[n+]1cccc2ccccc21)OC(=O)NC` (stereo not shown) [I c1, 1-hexadecylthio-2-methylcarbamoyloxy-3-(3-quinoliniopropylsulfonylamino)propane iodide], the IC50 is 920 nM.

For the compound `CCCCCCCCCCCCCCCCSCC(CNS(=O)(=O)CCC[n+]1cccc2ccccc21)NC(=O)OC(C)(C)C` (stereo not shown) [I e8, 2-tert-butoxycarbonylamino-1-hexadecylthio-3-(3-quinoliniopropylsulfonylamino)propane iodide], the IC50 worked out at 1970 nM.

For `CCCCCCCCCCCCCCCCCCNC(=O)OCC(CNS(=O)(=O)CCC[n+]1cccc2ccccc21)NC(C)=O` (stereo not shown) [I g4, 2-acetamido-1-octadecylcarbamoyloxy-3-(3-quinoliniopropylsulfonylamino)propane iodide], the IC50 worked out at 1830 nM.

For `CCCCCCCCCCCCCCCCCCNC(=O)OCC(CNS(=O)(=O)CCC[n+]1cccc2ccccc21)OC(=O)NC` (stereo not shown) [I c3, 2-methylcarbamoyloxy-1-octadecylcarbamoyloxy-3(3-quinoliniopropylsulfonylamino)propane iodide], the IC50 amounted to 330 nM.

As for `CCCCCCCCCCCCCCCCSCC(CNS(=O)(=O)CCC[N+](C)(C)C)COC` (stereo not shown) [I k4, 1-hexadecylthio-2-methoxymethyl-3-(3-trimethylammoniopropylsulfonylamino)propane iodide], the IC50 is 80300 nM.

As for `CCCCCCCCCCCCCCCCCCNC(=O)OCC(CNS(=O)(=O)CCC[n+]1cccc2ccccc21)NC(=O)OC` (stereo not shown) [I e5, 1-octadecylcarbamoyloxy-2-methoxycarbonylamino-3-(3-quinoliniopropylsulfonylamino)propane iodide], the IC50 was 533 nM.

`CCCCCCCCCCCCCCCCCCNC(=O)OCC(CNS(=O)(=O)CCC[n+]1cscc1C)OC` (stereo not shown) [I a5]: the IC50 is 1890 nM.

`CCCCCCCCCCCCCCCCSCC(CNS(=O)(=O)CCC[n+]1ccsc1)OC` (stereo not shown) [I a9, 1-hexadecylthio-2-methoxy-3-(3-thiazoliopropylsulfonylamino)propane iodide]: the IC50 was determined as 3640 nM.

With `CCCCCCCCCCCCCCCCOCC(CNS(=O)(=O)CCC[N+](C)(C)C)OC` (stereo not shown) [I a10, 1-hexadecyloxy-2-methoxy-3-(3-trimethylammoniopropylsulfonylamino)propane iodide], the IC50 came to 79900 nM.

For the compound `CCCCCCCCCCCCCCCCCCNC(=O)OCC(CNS(=O)(=O)CCCC[n+]1ccc2ccccc2c1)OC` (stereo not shown) [I a16], the IC50 turned out to be 13500 nM.

In the case of `CCCCCCCCCCCCCCCCSCC(CNS(=O)(=O)CCC[N+](C)(C)C)NC(C)=O` (stereo not shown) [I g2, 2-acetamido-1-hexadecylthio-3-(3-trimethylammoniopropylsulfonylamino)propane iodide], the IC50 turned out to be 14300 nM.

Take `CCCCCCCCCCCCCCCCCCNC(=O)OCC(CNS(=O)(=O)CCC[N+](C)(C)C)OC` (stereo not shown) [I a1, 2-methoxy-1-octadecylcarbamoyloxy-3-(3-trimethylammoniosulfonylamino)propane chloride]: the IC50 turned out to be 48100 nM.

Take `CCCCCCCCCCCCCCCCCCNC(=O)OCC(CNS(=O)(=O)CC[n+]1ccsc1)OC` (stereo not shown) [I a12, 2-methoxy-1-octadecylcarbamoyloxy-3-(2-thiazolioethylsulfonylamino)propaneiodide]: the IC50 is 5950 nM.

`CCCCCCCCCCCCCCCCCCNC(=O)OCC(COC)CN(C(C)=O)S(=O)(=O)CCC[n+]1cccc2ccccc21` (stereo not shown) [I k6, 3-(N-acetyl-3-quinoliniopropylsulfonylamino)-2-methoxymethyl-1-octadecylcarbamoyloxypropane iodide]: the IC50 is 340 nM.

In the case of `CCCCCCCCCCCCCCCCOCC(CNS(=O)(=O)CCC[n+]1cccc2ccccc21)COC` (stereo not shown) [I k3, 1-hexadecyloxy-2-methoxymethyl-3-(3-quinoliniopropylsulfonylamino)propane iodide], the IC50 amounted to 600 nM.

Consider `CCCCCCCCCCCCCCCCCCNC(=O)OCC(CNS(=O)(=O)CCC[n+]1cccc2ccccc21)NC(=O)NC` (stereo not shown) [I f3, 1-octadecylcarbamoyloxy-2-(3-methylureido)-3-(3-quinoliniopropylsulfonylamino)propane iodide], for which the IC50 worked out at 965 nM.

Regarding `CCCCCCCCCCCCCCCCSCC(CNS(=O)(=O)CCC[n+]1cccc2ccccc21)NC(=O)NC` (stereo not shown) [I f4], the IC50 came out at 873 nM.

With `CCCCCCCCCCCCCCCCCCNC(=O)SCC(CNS(=O)(=O)CCC[n+]1ccsc1)OC` (stereo not shown) [I a26, 2-methoxy-1-octadecylcarbamoylthio-3-(3-thiazoliniopropylsulfonylamino)propane iodide], the IC50 amounted to 1930 nM.

For the compound `CCCCCCCCCCCCCCCCSCC(CNS(=O)(=O)CCC[n+]1cccc2ccccc21)NC(=O)OC` (stereo not shown) [I e7, 1-hexadecylthio-2-methoxycarbonylamino-3-(3-quinoliniopropylsulfonylamino)propane iodide], the IC50 was determined as 850 nM.

In the case of `CCCCCCCCCCCCCCCCCCNC(=O)OCC(CN(C(C)=O)S(=O)(=O)CCC[n+]1cccc2ccccc21)NC(C)=O` (stereo not shown) [I g6, 3-(N-acetyl-3-quinoliniopropylsulfonylamino)-2-acetamido-1-octadecylcarbamoyloxypropane iodide], the IC50 turned out to be 1320 nM.

Regarding `CCCCCCCCCCCCCCCCCCNC(=O)OCC(CNS(=O)(=O)CCC[n+]1cccc2ccccc21)COC` (stereo not shown) [I k5, 2-methoxymethyl-1-octadecylcarbamoyloxy-3-(3-quinoliniopropylsulfonylamino)propane iodide], the IC50 was 400 nM.

For the compound `CCCCCCCCCCCCCCCCCCNC(=O)OCC(CNS(=O)(=O)CCC[n+]1ccsc1)OC` (stereo not shown) [I a2, 2-methoxy-1-octadecylcarbamoyloxy-3-(3-thiazoliopropylsulfonylamino)propane iodide], the IC50 is 1890 nM.

For the compound `CCCCCCCCCCCCCCCCSCC(CNS(=O)(=O)CCC[N+](C)(C)C)OC` (stereo not shown) [I a8, 1-hexadecylthio-2-methoxy-3-(3-trimethylammoniopropylsulfonylamino)propaneiodide], the IC50 was determined as 82100 nM.

Take `CCCCCCCCCCCCCCCCCCNC(=O)OCC(CNS(=O)(=O)CCCC[n+]1cccc2ccccc21)OC` (stereo not shown) [I a14]: the IC50 came to 1290 nM.

`CCCCCCCCCCCCCCCCCCNC(=O)OCC(CNS(=O)(=O)CCC[n+]1ccncc1)OC` (stereo not shown) [I a6]: the IC50 came out at 45400 nM.

Take `CCCCCCCCCCCCCCCCCCNC(=O)OCC(CNS(=O)(=O)CCC[n+]1cccc2ccccc21)OC` (stereo not shown) [I a7]: the IC50 turned out to be 650 nM.

Staying with this test, now noted: in vitro, rabbit PRP 50-55×10^4 /μl, 37° C., PAF C16 final 20 nM added 2 minutes after compound; read-out: IC50 (concentration of the test compounds which inhibit 50% platelet aggregation).
In the case of “2-methoxy-1-octadecylcarbamoylthio-3-(4-quinoliniopropylsulfonyamino)propane chloride [I a27]”, the IC50 worked out at 740 nM.

Take `CCCCCCCCCCCCCCCCCCNC(=O)OCC(CNS(=O)(=O)CCCC[n+]1ccc2ccccc2c1)OC` (stereo not shown) [I a20]: the IC50 was found to be 16000 nM.
